Laboratory results reported in EP3964206A1, “COMPOUNDS FOR THE TREATMENT OF COVID-19” (priority 2020, dated 2022).
Counter-ions that a name gives are not always drawn. Like-named read-outs stand apart in the source and are kept apart here.

System: SARS-CoV-2
Assay: microbe, parasite or virus in culture
Type: cell-based
Details: for Emax: read-out: Maximum confluence reached (%)
[1] = Severe acute respiratory syndrome coronavirus 2, 120 h

| Compound | Emax [1] | also measured |
| --- | --- | --- |
| O=C(C1CC1)N1CC[C@@H](Cc2n[nH]c(=O)n2-c2ccc(-c3ccc4ccoc4c3)cc2)C1 [Compound 67, 4-[4-(1-Benzofuran-6-yl)phenyl]-5-[1-(cyclopropylcarbonyl)pyrrolidin-3(S)-ylmethyl]-3,4-dihydro-2H-1,2,4-triazol-3-one] | 31.1% | IC50 [1]: 17 µM |
| Cc1[nH]c(/C=C2\C(=O)Nc3ccc(S(=O)(=O)Cc4c(Cl)cccc4Cl)cc32)c(C)c1C(=O)N1CCC[C@@H]1CN1CCCC1 [Compound 53, 5-(2,6-Dichlorobenzylsulfonyl)-3(Z)-[3,5-dimethyl-4-[2(R)-(pyrrolidin-1-ylmethyl)pyrrolidin-1-ylcarbonyl]-1H-pyrrol-2-ylmethylene]-2,3-dihydro-1H-indol-2-one] | 95.7% |  |
| CC(C)(C)c1cc(C=C(C#N)C#N)cc(Br)c1O [Compound 99, 2-(3-Bromo-5-tert-butyl-4-hydroxybenzylidene)propanedinitrile] | 37.3% | IC50 [1]: 7.23 µM |
| O=S(=O)(NCC1CC1)c1ccc(Nc2nccc(N3CCCc4cc(O)ccc43)n2)cc1 [Compound 86, N-(Cyclopropylmethyl)-4-[[4-(3,4-dihydro-6-hydroxy-1(2H)-quinolinyl)-2-pyrimidinyl]amino]benzenesulfonamide] | 55% |  |
| O=C(Nc1ccc(Cl)cc1)Nc1ccc(Cl)c(Cl)c1 [Compound 100, 3-(4-Chlorofenil)-1-(3,4-diclorofenil)urea] | 47.2% |  |
| CN(C)C(=O)C(CCN1CCC(O)(c2ccc(Cl)cc2)CC1)(c1ccccc1)c1ccccc1 [Compound 110, 4-[4-(4-Chlorophenyl)-4-hydroxypiperidin-1-yl]-N,N-dimethyl-2,2-diphenylbutyramide hydrochloride] | 34.4% |  |
| O=C(NCCN1CCC2(CC1)C(=O)NCN2c1cccc(F)c1)c1ccc2ccccc2c1 [Compound 56, N-[2-[1-(3-Fluorophenyl)-4-oxo-1,3,8-triazaspiro[4.5]dec-8-yl]ethyl]naphthalen-2-carboxamide] | 98.5% |  |
| CC(=O)[C@]1(O)Cc2c(O)c3c(c(O)c2[C@@H](O[C@H]2C[C@H](N)[C@H](O)[C@H](C)O2)C1)C(=O)c1ccccc1C3=O [Compound 38, (7S,9S)-9-Acetyl-7-[(3-amino-2,3,6-trideoxy-alpha-L-lyxo-hexopyranosyl)oxy]-7,8,9,10-tetrahydro-6,9,11-trihydroxy-5,12-naphthacenedione hydrochloride] | 92.6% |  |
| CC1=NN(c2ccc(C)c(C)c2)C(=O)/C1=N\Nc1cccc(-c2cccc(C(=O)O)c2)c1O [Compound 37, 3'-[2(Z)-[1-(3,4-Dimethylphenyl)-3-methyl-5-oxo-4,5-dihydro-1H-pyrazol-4-ylidene]hydrazino]-2'-hydroxybiphenyl-3-carboxylic acid] | 63.2% | IC50 [1]: 58.1 µM |
| Nc1ncnc2c1ncn2[C@@H]1CC[C@@H](O)[C@H]1O [Compound 74, (1R,2S,3R)-9-(2,3-Dihydroxycyclopentyl)adenine] | 38% |  |
| Cc1nc(N)nc(N)c1-c1ccc(Cl)c(Cl)c1 [Compound 41, 5-(3,4-Dichlorophenyl)-6-methylpyrimidine-2,4-diamine] | 58% |  |
| (4R,4aS)-18-Ethenyl-4,4a-dihydro-3,4-bis(methoxycarbonyl)-4a,8,14,19-tetramethyl-24H,26H-benzo[b]porphine-9,13-dipropanoic acid monomethyl ester [Compound 39] |  | Maximum confluence reached (%): 89.5%; IC50 (read-out: IC50): 30 µM |
| Cn1c(Nc2ccc(C(F)(F)F)cc2)nc2cc(Oc3ccnc(-c4nc(C(F)(F)F)c[nH]4)c3)ccc21 [Compound 70, 1-Methyl-N-[4-(trifluoromethyl)phenyl]-5-[2-[4-(trifluoromethyl)-1H-imidazol-2-yl]pyridin-4-yloxy]-1H-benzimidazol-2-amine] | 44.1% |  |
| COc1cc2c(N3CCN(C(=O)Nc4ccc(OC(C)C)cc4)CC3)ncnc2cc1OCCCN1CCCCC1 [Compound 35, N-(4-Isopropoxyphenyl)-4-[6-methoxy-7-[3-(1-piperidinyl)propoxy]quinazolin-4-yl]piperazine-1-carboxamide] | 80.1% |  |
| CNCc1ccc(-c2cc(-c3nc(-c4ccc(S(=O)(=O)C(C)C)cc4)cnc3N)on2)cc1 [Compound 34, 3-[3-[4-[(Methylamino)methyl]phenyl]-1,2-oxazol-5-yl]-5-[4-(propan-2-ylsulfonyl)phenyl]pyrazin-2-amine] | 99.2% |  |
| CN(C)c1cccc(-c2c3c(=O)n(-c4ccccc4Cl)[nH]c3cc(=O)n2C)c1 [Compound 13, 2-(2-Chlorophenyl)-4-[3-(dimethylamino)phenyl]-5-methyl-1H-pyrazolo[4,3-c]pyridine-3,6(2H,5H)-dione] | 102% | IC50 [1]: 7.57 µM |
| CC[C@@]1([C@@H]2O[C@@H]([C@H]3O[C@@](O)(COC(=O)Nc4ccccc4)[C@H](C)C[C@@H]3C)C[C@@H]2C)CC[C@H]([C@]2(C)CC[C@]3(C[C@H](O)[C@@H](C)[C@@H]([C@@H](C)[C@@H](OC)[C@H](C)C(=O)O)O3)O2)O1 [Compound 98, 4(S)-[(2S,5R,7S,8R,9S)-2-[(2S,2'R,3'S,5R,5'R)-2-Ethyl-5'-[6(R)-hydroxy-3(S),5(R)-dimethyl-6-(phenylaminocarbonyloxymethyl)tetrahydropyran-2(S)-yl]-3'-methylperhydro-2,2'-bifuran-5-yl]-9-hydroxy-2,8-dimethyl-1,6-dioxaspiro[4.5]dec-7-yl]-3(R)-methoxy-2(S)-methylpentanoic acid sodium salt] | 38.2% | IC50 [1]: 3.18 µM |
| CC[C@@H](C(=O)[C@@H](C)[C@@H](O)[C@H](C)[C@@H]1O[C@@H]([C@@H](CC)C(=O)O)CC[C@@H]1C)[C@H]1O[C@]2(C=C[C@@H](O)[C@]3(CC[C@@](C)([C@H]4CC[C@](O)(CC)[C@H](C)O4)O3)O2)[C@H](C)C[C@@H]1C [Compound 93, 2(R)-[6(R)-[5(R)-[(2S,5S,7R,9S,10S,12R,15R)-2-[5(R)-Ethyl-5-hydroxy-6(S)-methyltetrahydropyran-2(R)-yl]-15-hydroxy-2,10,12-trimethyl-1,6,8-trioxadispiro[4.1.5.3]pentadec-13-en-9-yl]-2(S)-hydroxy-1(S),3(S)-dimethyl-4-oxoheptyl]-5(S)-methyltetrahydropyran-2(R)-yl]butyric acid] | 34.4% |  |

| Compound | Emax [1] | also measured |
| --- | --- | --- |
| CCN(CC)CCOc1ccc2c(c1)C(=O)c1cc(OCCN(CC)CC)ccc1-2 [Compound 84, 2,7-Bis[2-(diethylamino)ethoxy]-9H-fluoren-9-one] | 68.9% |  |
| Cn1cc(-c2ccncc2)c(-c2ccc(OCc3ccc4ccccc4n3)cc2)n1 [Compound 83, 2-[4-[1-Methyl-4-(4-pyridyl)-1H-pyrazol-3-yl]phenoxymethyl]quinoline succinate] | 36.7% |  |
| Cn1nc(C(C)(C)C)cc1C(=O)N[C@@H](Cc1cccc(Cl)c1)C(=O)NCC#N [Compound 63, 3-tert-butyl-N-{(1S)-1-(3-chlorobenzyl)-2-[(cyanomethyl)amino]-2-oxoethyl}-1-methyl-1H-pyrazole-5-carboxamide] | 96.2% |  |
| Nc1nc(N)c2nc(CNc3ccc(C(=O)N[C@@H](CCC(=O)O)C(=O)O)cc3)cnc2n1 [Compound 10, N-[4-(2,4-diamino-6-pteridinylmethylamino)benzolyl]-L-glutamic acid] | 72.5% |  |
| CN(C)CCC=C1c2ccccc2C=Cc2ccccc21 [Compound 90, 3-(5H-Dibenzo[a,d]cyclohepten-5-ylidene)-N,N-dimethylpropan-1-amine hydrochloride] | 70.2% | IC50 [1]: 12.1 µM |
| CC(C)(O)CNc1ncc(-c2ccnc(Nc3ccnc(Cl)c3)n2)c(CC2CC2)n1 [Compound 60, 1-[[2-[(2-chloro-4-pyridinyl)amino]-4'-(cyclopropylmethyl)[4,5'-bipyrimidin]-2'-yl]amino]-2-methyl-2-propanol] | 45.6% |  |
| O=C(CCCN1CCC2(CC1)C(=O)N(Cc1cccc(F)c1)CN2c1ccccc1)c1ccc(F)cc1 [Compound 46, 3-[(3-fluorophenyl)methyl]-8-[4-(4-fluorophenyl)-4-oxobutyl]-1-phenyl-1,3,8-triazaspiro[4.5]decan-4-one] | 43% |  |
| CC(C)(C)c1cc(C=C(C#N)C#N)cc(C(C)(C)C)c1O [Compound 103, (3,5-Di-tert-butyl-4-hydroxybenzylidene)malononitrile] |  | IC50 [1]: 205 µM |
| O=C(O)c1ccc(N2C(=O)C(=Cc3ccc(-c4ccc([N+](=O)[O-])cc4)o3)C=C2c2ccccc2)cc1 [Compound 105, 4-[3-[5-(4-Nitrophenyl)furan-2-ylmethylene]-2-oxo-5-phenyl-2,3-dihydro-1H-pyrrol-1-yl]benzoic acid] | 52.1% | IC50 [1]: 236 µM |
| CCC(=C(c1ccc(O)cc1)c1ccc(OCCNC)cc1)c1ccccc1 [Compound 91, 4-[1-[4-[2-(Methylamino)ethoxy]phenyl]-2-phenyl-1-butenyl]phenol hydrochloride] | 35.7% | IC50 [1]: 6.34 µM |
| (1R,2S,3R)-3-(6-Amino-9H-purin-9-yl)-1,2-cyclopentanediol [Compound 75] |  | Maximum confluence reached (%): 33.14%; IC50 (read-out: IC50): 0.36 µM |
| Cc1ccc(NC(=O)c2ccc(CN3CCN(C)CC3)cc2)cc1Nc1nc(-c2cccnc2)cs1 [Compound 50, 4-[(4-methylpiperazin-1-yl)methyl]-N-[4-methyl-3-[(4-pyridin-3-yl-1,3-thiazol-2-yl)amino]phenyl]benzamide] | 57.1% |  |
| Oc1c(Cl)cc(Cl)cc1Sc1cc(Cl)cc(Cl)c1O [Compound 102, 2,2'-Thio-bis(4,6-dichlorophenol)] | 31.2% |  |
| O=C(Nc1ccc(Cl)c(Cl)c1)Nc1ccc(Cl)c(Cl)c1 [Compound 72, 1,3-Bis(3,4-dichlorophenyl)urea] | 45.9% |  |
| Nc1nc(=S)c2ncn([C@@H]3O[C@H](CO)[C@@H](O)[C@H]3O)c2[nH]1 [Compound 55, 2-amino-9-[(2R,3R,4S,5R)-3,4-dihydroxy-5-(hydroxymethyl)oxolan-2-yl]-3H-purine-6-thione] | 51.5% |  |
| CCN(CC)Cc1cc(Nc2ccnc3cc(Cl)ccc23)ccc1O [Compound 106, 4-(7-Chloroquinolin-4-ylamino)-2-(diethylaminomethyl)phenol hydrochloride] | 37.5% | IC50 [1]: 21.5 µM |
| COc1cc2ncnc(Nc3cccc(Br)c3)c2cc1OC [Compound 68, 4-(3-Bromophenylamino)-6,7-dimethoxyquinazoline] | 54.5% |  |
